Reference: US20260206761A1, “HETEROARYL-TRIAZOLE COMPOUNDS AS PESTICIDES” (Bayer Aktiengesellschaft, priority 2019, published 2026)

Columns and labels:
Type in all cases: in vivo
[1] = system: Rhipicephalus microplus larvae (strain Parkhurst, resistant against synthetic pyrethroids); test: Rhipicephalus (Boophilus) microplus in-vitro contact test, larval cattle tick; details: after 48 hours, read-out: activity (efficacy: larvae dead or moribund); for pest or weed control at 100 g/ha: application rate 1 pg/cm^2 (=100 g/ha); for pest or weed control at 500 g/ha: application rate 5 pg/cm^2 (=500 g/ha)
Experimental: Rhipicephalus (Boophilus) microplus—In-Vitro Contact Tests Larval Cattle Tick (Strain Parkhurst. Resistant Against Synthetic Pyrethroids)
(§1) 9 mg compound is solved in 1 mL acetone and diluted with acetone to the desired concentration. 250 μL of the test solution is filled in 25 mL glass test tubes and homogeneously distributed on the inner walls by rotation and tilting on a shaking device (2 h at 30 rpm). With a compound concentration of 900 ppm, an inner surface of 44.7 cm^2 and a homogeneous distribution, a dose of 5 μg/cm^2 is achieved.
After the solvent has evaporated, each test tube is filled with 20-50 cattle tick larvae (Rhipicephalus microplus), closed with a perforated lid and incubated in a horizontal position at 85% relative humidity and 27° C. in an incubator. After 48 hours efficacy is determined. The larvae are patted on the ground of the tubes and negative geotactic behaviour is recorded.
An efficacy of 100% means all larvae are dead or moribund; 0% means no larvae are dead or moribund.

[2] = system: adult engorged female ticks (Rhipicephalus microplus); test: Rhipicephalus (Boophilus) microplus injection test; details: 168 h, egg deposition after 7 days, read-out: activity (efficacy: infertile eggs); for pest or weed control at 4 pg: application rate 4 pg/animal; for pest or weed control at 0.02 mg: application rate 20 μg/animal
Experimental: Rhipicephalus (Boophilus) microplus—Injection Test
Solvent: dimethyl sulfoxide
To produce a suitable preparation of active compound, 10 mg of active compound are dissolved in 0.5 mL solvent, and the concentrate is diluted with solvent to the desired concentration.
Five adult engorged female ticks (Rhipicephalus microplus) are injected with 1 μL compound solution into the abdomen. The ticks are transferred into replica plates and incubated in a climate chamber.
After 7 days egg deposition of fertile eggs is monitored. Eggs where fertility is not visible are stored in a climate chamber till hatching after about 42 days. An efficacy of 100% means all eggs are infertile; 0% means all eggs are fertile.

[3] = system: larvae of the banded cucumber beetle (Diabrotica balteata); test: Diabrotica balteata spray test; details: 168 h, after 7 days, read-out: activity (efficacy: seedlings grown); for pest or weed control at 100 g/ha: application rate 100 g/ha (=32 pg/well); for pest or weed control at 500 g/ha: application rate 500 g/ha (=160 pg/well)
Experimental: Diabrotica balteata—spray test
(§2) Solvent: 78.0 parts by weight of acetone • • 1.5 parts by weight of dimethylformamide
(§3) Emulsifier: alkylarylpolyglycol ether
(§4) To produce a suitable preparation of active compound, 1 part by weight of active compound is mixed with the stated amount of solvent, and the concentrate is diluted with water, containing an emulsifier concentration of 1000 ppm, to the desired concentration. Further test concentrations are prepared by dilution with emulsifier containing water.
Soaked wheat seeds (Triticum aestivum) are placed in a multiple well plate filled with agar and some water and are incubated for 1 day to germinate (5 seeds per well). The germinated wheat seeds are sprayed with a test solution containing the desired concentration of the active ingredient. Afterwards each unit is infected with 10-20 larvae of the banded cucumber beetle (Diabrotica balteata).
After 7 days efficacy in % is determined. 100% means all the seedlings have grown up like in the untreated, uninfected control; 0% means none of the seedlings have grown.

[4] = system: larvae of the southern green stink bug (Nezara viridula); test: Nezara viridula spray test; details: 96 h, after 4 days; for mortality at 500 g/ha: application rate 500 g/ha
Experimental: Nezara viridula—Spray Test
as §2, §3, §4
Barley plants (Hordeum vulgare) infested with larvae of the southern green stink bug (Nezara viridula) are sprayed with a test solution containing the desired concentration of the active ingredient.
After 4 days mortality in % is determined. 100% means all the stink bugs have been killed; 0% means none of the stink bugs have been killed.

[5] = system: fall armyworm larvae (Spodoptera frugiperda); test: Spodoptera frugiperda spray test; details: 168 h, read-out: activity (mortality)
Experimental: Spodoptera frugiperda—Spray Test
Solvent: 78.0 parts by weight acetone • 1.5 parts by weight dimethylformamide
as §3
To produce a suitable preparation of active compound, 1 part by weight of active compound is mixed with the stated amount of solvents and is diluted with water, containing an emulsifier concentration of 1000 ppm, to the desired concentration. Further test concentrations are prepared by dilution with emulsifier containing water.
Maize (Zea mays) leaf sections are sprayed with a preparation of the active ingredient of the desired concentration. Once dry, the leaf sections are infested with fall armyworm larvae (Spodoptera frugiperda).
After 7 days mortality in % is determined. 100% means all caterpillars have been killed and 0% means none of the caterpillars have been killed.

[6] = system: green peach aphid (Myzus persicae); test: Myzus persicae oral test; details: 120 h, application rate 4 ppm, after 5 days
Experimental: Solvent: 100 parts by weight acetone
To produce a suitable preparation of active compound, 1 part by weight of active compound is mixed with the stated amount of solvent, and the concentrate is diluted with water to the desired concentration.
50 μL compound solution is filled in microtiter plates and 150 μL IPL41 insect medium (33%+15% sugar) is added to obtain a total volume of 200 μL per well. Afterwards the plates are sealed with parafilm through which a mixed population of the green peach aphid (Myzus persicae) can suck on the compound preparation.
After 5 days mortality in % is determined. 100% means all aphids have been killed and 0% means none of the aphids have been killed.

[7] = system: adult brown dog ticks (Rhipicephalus sanguineus); test: Rhipicephalus sanguineus in-vitro contact test, adult brown dog ticks; details: after 48 hours, read-out: activity (efficacy: ticks dead or moribund); for pest or weed control at 100 g/ha: application rate 1 pg/cm^2 (=100 g/ha); for pest or weed control at 5 µg/cm2, 500 g/ha: application rate 5 μg/cm^2 (=500 g/ha)
Experimental: Rhipicephalus sanguineus—In-Vitro Contact Tests with Adult Brown Dog Ticks
as §1
After the solvent has evaporated, each test tube is filled with 5-10 adult brown dog ticks (Rhipicephalus sanguineus), closed with a perforated lid and incubated in a lying position at room temperature and relative humidity. After 48 hours efficacy is determined. The ticks are patted on the ground of the tubes and are incubated on a heating plate at 45-50° C. for at most 5 minutes. Immotile or uncoordinated moving ticks, which are not able to escape the heat by climbing upwards, are marked as dead or moribund.
An efficacy of 100% means all ticks are dead or moribund; 0% means no ticks are dead or moribund.

| Structure (SMILES) | pest or weed control at 100 g/ha [1] [%] | pest or weed control at 500 g/ha [1] [%] | pest or weed control at 100 g/ha [3] [%] | mortality at 500 g/ha [4] [%] | mortality at 100 g/ha [5] [%] | also measured |
| --- | --- | --- | --- | --- | --- | --- |
| C[C@H](NC(=O)c1cc(OC(F)(F)F)cc(C2CC2)c1)c1nc(C2CC2)nn1-c1ccc(C#N)cn1 [I-37] | 100 | 100 | 100 |  |  | pest or weed control at 4 pg [2]: 100% |
| COc1nc([C@H](C)NC(=O)c2cc(Br)cc(C3CC3(F)F)c2)n(-c2ccc(C#N)cn2)n1 (some centres unmarked) [I-72] | 100 | 90 |  | 90 | 100 |  |
| COc1nc([C@H](C)NC(=O)c2cc(OC(F)(F)F)cc(S(=O)(=O)C3CC3)c2)n(-c2ccc(C#N)cn2)n1 [I-92] |  |  |  | 90 | 100 |  |
| COc1nc([C@H](C)NC(=O)c2cc(Cl)cc(S(=O)(=O)C(F)(F)F)c2)n(-c2ccc(C#N)cn2)n1 [I-54] | 100 | 100 |  |  | 100 | mortality at 4 ppm [6]: 100% |
| C[C@H](NC(=O)c1cc(Cl)cc(S(=O)(=O)C(F)(F)F)c1)c1nc(C2CC2)nn1-c1ccc(C#N)cn1 [I-40] | 100 | 100 | 100 |  | 100 | pest or weed control at 4 pg [2]: 100% |
| CC(NC(=O)c1cc(OC(F)(F)F)cc(C2CC2)c1)c1nc(Cl)nn1-c1ccc(C#N)cn1 (centres unmarked) [I-85] | 90 | 90 | 100 |  |  |  |
| COc1nc([C@H](C)NC(=O)c2cc(C(F)F)cc(S(C)(=O)=O)c2)n(-c2ccc(C#N)cn2)n1 [I-89] |  |  |  | 100 | 100 |  |
| C[C@H](NC(=O)c1cc(Br)cc(C(C)(C)C)c1)c1nncn1-c1ccc(C#N)cn1 [II-2] |  |  |  |  |  | pest or weed control at 4 pg [2]: 100%; pest or weed control at 0.02 mg [2]: 100%; pest or weed control at 500 g/ha [3]: 100%; mortality at 500 g/ha [5]: 100% |
| CC(NC(=O)c1cc(Br)cc(C2(C(F)(F)F)CC2)c1)c1nc(Cl)nn1-c1ccc(C#N)cn1 (centres unmarked) [I-50] | 80 | 90 |  |  |  |  |
| COc1nc([C@H](C)NC(=O)c2cc(OC(F)(F)F)cc(C3CC3)c2)n(-c2ccc(Cl)cn2)n1 [I-46] |  |  | 100 |  |  |  |
| CC(C)Oc1nc([C@H](C)NC(=O)c2csc(Cl)c2)n(-c2ccc(C#N)cn2)n1 [I-12] |  |  |  |  |  | pest or weed control at 0.02 mg [2]: 80% |
| C[C@H](NC(=O)c1cc(OC(F)(F)F)cc(S(=O)(=O)C2CC2)c1)c1nc(C2CC2)nn1-c1ccc(C#N)cn1 [I-90] |  |  | 100 | 100 | 100 |  |
| COc1nc([C@H](C)NC(=O)c2cc(F)cc(S(C)(=O)=O)c2)n(-c2ccc(C#N)cn2)n1 [I-73] |  |  | 100 |  | 100 |  |
| COc1nc([C@H](C)NC(=O)c2cc(Cl)cc(S(C)(=O)=O)c2)n(-c2ncc(Cl)cn2)n1 [I-78] |  |  | 100 |  | 100 |  |
| CC(C)S(=O)(=O)c1cc(Cl)cc(C(=O)N[C@@H](C)c2nc(C3CC3)nn2-c2ccc(C#N)cn2)c1 [I-14] | 100 | 100 |  |  |  | pest or weed control at 4 pg [2]: 100%; pest or weed control at 0.02 mg [2]: 100%; pest or weed control at 100 g/ha [7]: 80%; pest or weed control at 5 µg/cm2, 500 g/ha [7]: 80% |
| Cc1nc([C@H](C)NC(=O)c2sccc2C(F)(F)F)n(-c2ccc(C#N)cn2)n1 [II-10] |  | 90 |  |  |  |  |
| COc1nc([C@H](C)NC(=O)c2cc(Cl)cc(S(=O)(=O)C3CC3)c2)n(-c2ccc(C#N)cn2)n1 [I-87] |  |  |  | 100 | 100 |  |
| CC(NC(=O)c1cc(C(F)(F)F)n(C)n1)c1nc(I)nn1-c1ncccn1 (centres unmarked) [I-42] | 100 | 100 | 100 |  |  |  |
| CCOc1nc([C@H](C)NC(=O)c2csc(Cl)c2)n(-c2ccc(C#N)cn2)n1 [I-10] |  |  |  |  |  | pest or weed control at 0.02 mg [2]: 80%; pest or weed control at 500 g/ha [3]: 100% |
| C[C@H](NC(=O)c1cc(C(F)F)cc(S(C)(=O)=O)c1)c1nc(C2CC2)nn1-c1ccc(Cl)cn1 [I-57] | 100 | 100 | 100 | 90 | 100 | pest or weed control at 100 g/ha [7]: 100%; pest or weed control at 5 µg/cm2, 500 g/ha [7]: 80%; mortality at 100 g/ha ([4]; application rate 100 g/ha): 100% |
| C[C@H](NC(=O)c1cc(OC(F)F)cc(S(=O)(=O)C2CC2)c1)c1nc(C2CC2)nn1-c1ccc(C#N)cn1 [I-86] |  |  | 100 | 100 | 100 |  |
| CC(C)Oc1nc([C@H](C)NC(=O)c2cc(Cl)cc(S(C)(=O)=O)c2)n(-c2ccc(C#N)cn2)n1 [I-11] | 90 | 80 |  |  | 100 | pest or weed control at 4 pg [2]: 100%; pest or weed control at 0.02 mg [2]: 100%; pest or weed control at 500 g/ha [3]: 80%; mortality at 500 g/ha [5]: 83% |
